One test has as its system MDA-MB-453 cells. The test can be described thus: In vitro cytotoxicity assay (MTT, 72 h). It counts as cell-based. The conditions noted are these: Homo sapiens, growth inhibition. How it is done: (§1) Six different cell lines were used, including human breast cancer cell lines MDA-MB-231 (6×10^3) and MDA-MB-453 (2.4×10^4), human colorectal cell line SW48 (2.4×10^4), human breast epithelial cell line M10 (6×10^3), human cancer cell line A549 (1.4×10^3), and murine colorectal carcinoma tumors CT26 (6×10^3), which were seeded in a 96-well plate. […] After 72 h, MTT assay (Cayman™) was used to determine the cellular viability.

The test system of the next test is MDA-MB-231 cells. The test is described as follows: In vitro cytotoxicity assay (MTT, 72 h). It counts as cell-based. The conditions noted are these: Homo sapiens, growth inhibition. How it is done: as §1
The test system of another test is M10 cells. The test can be described thus: In vitro cytotoxicity assay (MTT, 72 h). The conditions noted are these: growth inhibition, human normal cell line. It counts as cell-based. As to the method:
as §1

In another test the test system is SW48 cells. The test is described as follows: In vitro cytotoxicity assay (MTT, 72 h). The conditions noted are these: Homo sapiens, growth inhibition. The class given is cell-based. As to the method: as §1
For another test, the system named is A549 cells. The test can be described thus: In vitro cytotoxicity assay (MTT, 72 h). The class given is cell-based. The conditions noted are these: Homo sapiens, growth inhibition. How it is done:
as §1

A further test has as its target T1, TYRO3 (RSE) (Homo sapiens, UniProt Q06418).
T1 sequence (Q06418 41-890): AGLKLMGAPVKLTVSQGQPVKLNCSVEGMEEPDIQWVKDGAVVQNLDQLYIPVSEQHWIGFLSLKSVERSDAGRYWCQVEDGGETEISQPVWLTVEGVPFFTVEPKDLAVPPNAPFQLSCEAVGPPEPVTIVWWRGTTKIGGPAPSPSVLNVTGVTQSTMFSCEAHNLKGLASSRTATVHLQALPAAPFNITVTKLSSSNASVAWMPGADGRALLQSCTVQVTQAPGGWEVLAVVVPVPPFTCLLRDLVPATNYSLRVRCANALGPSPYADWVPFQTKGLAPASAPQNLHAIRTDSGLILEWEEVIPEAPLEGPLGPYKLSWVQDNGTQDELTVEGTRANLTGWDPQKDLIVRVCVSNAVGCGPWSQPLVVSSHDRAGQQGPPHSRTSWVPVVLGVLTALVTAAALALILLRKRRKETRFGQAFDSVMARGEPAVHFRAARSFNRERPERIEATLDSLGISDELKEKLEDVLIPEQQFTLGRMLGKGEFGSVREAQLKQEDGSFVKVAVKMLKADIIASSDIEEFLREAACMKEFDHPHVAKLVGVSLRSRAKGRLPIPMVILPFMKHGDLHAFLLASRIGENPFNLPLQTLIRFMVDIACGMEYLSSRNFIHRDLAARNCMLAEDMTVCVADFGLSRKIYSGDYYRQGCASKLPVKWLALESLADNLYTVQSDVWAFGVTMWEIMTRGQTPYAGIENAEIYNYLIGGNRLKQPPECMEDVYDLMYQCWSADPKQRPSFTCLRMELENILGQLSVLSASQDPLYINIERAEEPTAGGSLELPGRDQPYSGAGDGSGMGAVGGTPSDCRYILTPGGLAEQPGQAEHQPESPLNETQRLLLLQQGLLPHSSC
The test is described as follows: Tyrosine kinase inhibition assay. It counts as biochemical. The conditions noted are these: for inhibition at 1 µM: single concentration 1.0 μM, read-out: percent inhibition. How it is done:
(§2) Tyrosine kinase inhibition assays were performed at ThermoFisher Life Technologies (Madison, WI, USA) using standard protocols (SelectScreen Biochemical Profiling Service, Thermo Fisher Scientific). ATP concentrations used were at the apparent Km. Test compounds were screened in 1% dimethylsulffoxide (DMSO) (final concentration) in the well. For 10-point titrations, 3-fold serial dilutions were conducted from the starting concentration of […]. All Peptide/Kinase Mixtures were diluted to a 2× working concentration in the appropriate Kinase Buffer. All ATP Solutions were diluted to a 4× working concentration in Kinase Buffer (50 mM HEPES pH 7.5, 0.01% BRIJ-35, 10 mM MgCl2, 1 mM EGTA). The apparent ATP Km was previously determined using a Z′-LYTE assay. The Development Reagent was diluted in Development Buffer.
(§3) The inhibition activities of compounds were determined in biochemical assays using single concentration (1.0 μM) measurements. The results were provided as percent inhibition values. […] 99 different tyrosine kinases were used.

In a further test the target is CSF1R (FMS) (Homo sapiens, UniProt P07333). The test is described as follows: Tyrosine kinase inhibition assay. It counts as biochemical. The conditions noted are these: for IC50: read-out: IC50 of compound; for inhibition at 1 µM: single concentration 1.0 μM, read-out: percent inhibition. As to the method: as §2, §3
Another test addresses MST1R (RON) (Homo sapiens, UniProt Q04912). The test can be described thus: Tyrosine kinase inhibition assay. It counts as biochemical. The conditions noted are these: for inhibition at 1 µM: single concentration 1.0 μM, read-out: percent inhibition; for IC50: read-out: IC50 of compound. How it is done:
as §2, §3

The target in the next test is T2, FLT3 (Homo sapiens, UniProt P36888).
T2 sequence (P36888 27-993): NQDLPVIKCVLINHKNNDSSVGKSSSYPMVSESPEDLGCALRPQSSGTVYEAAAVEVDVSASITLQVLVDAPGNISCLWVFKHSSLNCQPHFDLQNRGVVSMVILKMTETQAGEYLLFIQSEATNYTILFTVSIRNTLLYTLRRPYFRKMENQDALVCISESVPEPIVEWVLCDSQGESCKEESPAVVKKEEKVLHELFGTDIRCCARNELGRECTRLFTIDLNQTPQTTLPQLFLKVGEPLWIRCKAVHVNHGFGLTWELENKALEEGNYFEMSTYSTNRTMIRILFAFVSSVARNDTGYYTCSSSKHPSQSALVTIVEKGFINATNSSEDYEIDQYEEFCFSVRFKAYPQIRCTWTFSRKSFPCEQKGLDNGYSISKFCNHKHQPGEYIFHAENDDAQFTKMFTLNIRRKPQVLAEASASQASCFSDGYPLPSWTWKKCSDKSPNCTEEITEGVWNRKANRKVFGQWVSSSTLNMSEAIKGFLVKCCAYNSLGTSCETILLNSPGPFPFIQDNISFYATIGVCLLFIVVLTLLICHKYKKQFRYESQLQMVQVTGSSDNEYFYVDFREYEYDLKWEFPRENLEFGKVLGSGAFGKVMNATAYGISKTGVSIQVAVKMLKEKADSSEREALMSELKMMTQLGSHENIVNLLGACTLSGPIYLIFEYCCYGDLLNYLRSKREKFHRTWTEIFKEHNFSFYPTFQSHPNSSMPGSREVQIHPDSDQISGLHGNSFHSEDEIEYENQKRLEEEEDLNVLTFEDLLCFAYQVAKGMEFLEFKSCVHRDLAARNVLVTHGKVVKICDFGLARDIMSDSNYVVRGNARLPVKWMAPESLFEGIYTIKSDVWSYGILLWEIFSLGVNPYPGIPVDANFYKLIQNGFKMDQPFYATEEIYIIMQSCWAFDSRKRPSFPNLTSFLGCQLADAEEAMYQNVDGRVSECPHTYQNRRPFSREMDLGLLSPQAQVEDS
The test can be described thus: Tyrosine kinase inhibition assay. The class given is biochemical. The conditions noted are these: for inhibition at 1 µM: single concentration 1.0 μM, read-out: percent inhibition; for IC50: read-out: IC50 of compound. How it is done:
as §2, §3

A further test has as its target TEK (Tie2) (Homo sapiens, UniProt Q02763). The test is described as follows: Tyrosine kinase inhibition assay. The class given is biochemical. The conditions noted are these: for inhibition at 1 µM: single concentration 1.0 μM, read-out: percent inhibition; for IC50: read-out: IC50 of compound. How it is done:
as §2, §3

The mark [1] stands for this setting: TYRO3 (RSE), read-out: IC50 of compound.

Where two headings read alike, the source gives them in different places.

Chain of CSF1R (FMS) (P07333 20-972): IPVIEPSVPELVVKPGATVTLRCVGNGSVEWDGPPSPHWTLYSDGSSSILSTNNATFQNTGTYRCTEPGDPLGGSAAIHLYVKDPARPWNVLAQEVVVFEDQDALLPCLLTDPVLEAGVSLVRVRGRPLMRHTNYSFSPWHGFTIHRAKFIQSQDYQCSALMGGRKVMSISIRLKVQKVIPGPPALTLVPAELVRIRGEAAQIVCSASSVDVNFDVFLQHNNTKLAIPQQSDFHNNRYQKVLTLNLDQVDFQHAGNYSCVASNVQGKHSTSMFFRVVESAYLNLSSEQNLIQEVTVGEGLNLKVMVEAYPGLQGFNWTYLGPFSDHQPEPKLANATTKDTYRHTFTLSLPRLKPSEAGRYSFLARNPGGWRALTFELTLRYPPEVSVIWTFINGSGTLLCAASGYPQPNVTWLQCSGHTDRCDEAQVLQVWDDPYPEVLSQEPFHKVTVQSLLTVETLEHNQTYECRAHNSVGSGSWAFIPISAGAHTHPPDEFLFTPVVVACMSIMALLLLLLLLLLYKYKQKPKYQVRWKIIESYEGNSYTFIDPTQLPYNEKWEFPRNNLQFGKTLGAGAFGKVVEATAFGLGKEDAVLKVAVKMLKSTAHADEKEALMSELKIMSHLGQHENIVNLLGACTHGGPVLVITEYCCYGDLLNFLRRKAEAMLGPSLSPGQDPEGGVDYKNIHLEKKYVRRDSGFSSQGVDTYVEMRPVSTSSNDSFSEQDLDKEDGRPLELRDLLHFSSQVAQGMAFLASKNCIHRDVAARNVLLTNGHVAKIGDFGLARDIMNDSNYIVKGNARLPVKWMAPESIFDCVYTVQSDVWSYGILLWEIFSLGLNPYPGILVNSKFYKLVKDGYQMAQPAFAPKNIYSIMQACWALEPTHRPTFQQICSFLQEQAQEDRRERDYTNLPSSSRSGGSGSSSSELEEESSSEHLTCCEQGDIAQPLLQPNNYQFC
Chain of MST1R (RON) (Q04912 25-1400): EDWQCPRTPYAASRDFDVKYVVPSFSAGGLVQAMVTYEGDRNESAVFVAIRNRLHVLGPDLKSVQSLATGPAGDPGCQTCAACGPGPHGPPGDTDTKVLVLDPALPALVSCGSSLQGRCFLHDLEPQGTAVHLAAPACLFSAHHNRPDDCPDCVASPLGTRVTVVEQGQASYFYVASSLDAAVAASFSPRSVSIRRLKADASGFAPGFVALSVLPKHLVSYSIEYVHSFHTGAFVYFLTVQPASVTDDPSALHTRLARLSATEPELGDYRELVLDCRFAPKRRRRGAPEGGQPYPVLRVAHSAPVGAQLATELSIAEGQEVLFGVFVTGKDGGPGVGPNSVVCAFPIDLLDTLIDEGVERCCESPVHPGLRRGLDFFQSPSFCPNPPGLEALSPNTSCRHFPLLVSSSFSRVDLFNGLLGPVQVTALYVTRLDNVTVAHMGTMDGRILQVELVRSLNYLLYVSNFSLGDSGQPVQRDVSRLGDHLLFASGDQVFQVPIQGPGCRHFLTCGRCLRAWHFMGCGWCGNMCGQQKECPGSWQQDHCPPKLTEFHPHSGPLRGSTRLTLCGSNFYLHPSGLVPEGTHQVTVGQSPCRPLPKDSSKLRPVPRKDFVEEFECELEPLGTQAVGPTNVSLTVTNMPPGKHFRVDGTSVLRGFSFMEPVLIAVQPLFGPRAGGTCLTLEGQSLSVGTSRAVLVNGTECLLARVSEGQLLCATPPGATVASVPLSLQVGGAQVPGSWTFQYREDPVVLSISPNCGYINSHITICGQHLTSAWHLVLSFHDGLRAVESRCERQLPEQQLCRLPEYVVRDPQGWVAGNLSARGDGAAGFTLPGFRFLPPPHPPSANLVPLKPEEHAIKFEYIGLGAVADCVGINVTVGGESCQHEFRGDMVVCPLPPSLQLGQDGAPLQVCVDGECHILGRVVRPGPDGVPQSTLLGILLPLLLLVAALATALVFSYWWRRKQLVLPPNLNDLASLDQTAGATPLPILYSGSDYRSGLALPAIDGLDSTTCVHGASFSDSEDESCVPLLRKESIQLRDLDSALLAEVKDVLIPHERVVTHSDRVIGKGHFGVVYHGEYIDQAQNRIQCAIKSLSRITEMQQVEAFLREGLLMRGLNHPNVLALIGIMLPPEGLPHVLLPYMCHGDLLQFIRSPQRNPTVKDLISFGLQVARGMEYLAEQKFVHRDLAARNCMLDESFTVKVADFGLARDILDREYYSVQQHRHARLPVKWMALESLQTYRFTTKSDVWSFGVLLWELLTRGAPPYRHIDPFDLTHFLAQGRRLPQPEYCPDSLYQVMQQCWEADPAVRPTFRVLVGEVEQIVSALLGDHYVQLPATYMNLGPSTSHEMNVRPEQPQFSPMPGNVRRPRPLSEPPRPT
Chain of TEK (Tie2) (Q02763 23-1124): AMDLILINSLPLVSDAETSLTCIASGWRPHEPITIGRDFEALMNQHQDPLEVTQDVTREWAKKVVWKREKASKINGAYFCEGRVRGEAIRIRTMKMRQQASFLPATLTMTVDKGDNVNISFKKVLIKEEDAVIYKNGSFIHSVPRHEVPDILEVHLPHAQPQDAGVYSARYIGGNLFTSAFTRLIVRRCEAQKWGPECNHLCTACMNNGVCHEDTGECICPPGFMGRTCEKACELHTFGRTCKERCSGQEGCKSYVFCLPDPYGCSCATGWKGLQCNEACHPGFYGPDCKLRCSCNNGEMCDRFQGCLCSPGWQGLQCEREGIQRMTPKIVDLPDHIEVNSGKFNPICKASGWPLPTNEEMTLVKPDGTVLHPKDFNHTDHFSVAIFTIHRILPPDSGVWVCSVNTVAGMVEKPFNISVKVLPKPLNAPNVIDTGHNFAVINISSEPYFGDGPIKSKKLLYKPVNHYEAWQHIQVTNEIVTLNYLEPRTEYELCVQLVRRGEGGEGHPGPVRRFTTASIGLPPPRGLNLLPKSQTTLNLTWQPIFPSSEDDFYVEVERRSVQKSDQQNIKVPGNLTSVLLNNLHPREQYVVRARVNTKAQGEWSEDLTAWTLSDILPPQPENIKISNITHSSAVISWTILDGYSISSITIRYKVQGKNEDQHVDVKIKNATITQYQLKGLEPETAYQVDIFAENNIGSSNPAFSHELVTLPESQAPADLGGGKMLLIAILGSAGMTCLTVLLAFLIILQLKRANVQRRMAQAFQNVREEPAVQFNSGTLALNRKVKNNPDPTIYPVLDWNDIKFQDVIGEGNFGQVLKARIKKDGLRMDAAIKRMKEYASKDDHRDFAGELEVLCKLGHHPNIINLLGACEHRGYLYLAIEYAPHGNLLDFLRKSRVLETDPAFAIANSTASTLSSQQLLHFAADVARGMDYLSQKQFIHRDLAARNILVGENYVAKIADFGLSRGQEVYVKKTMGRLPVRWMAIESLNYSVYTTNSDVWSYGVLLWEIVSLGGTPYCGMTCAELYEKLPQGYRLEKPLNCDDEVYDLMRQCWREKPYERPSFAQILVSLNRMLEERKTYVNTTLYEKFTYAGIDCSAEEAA

As to `COc1cc2nccc(Oc3ccc(NC(=O)C4(C(=O)Nc5ccc(F)cc5)CC4)cc3)c2cc1OC` [Cabozantinib, reference compound], the IC50 in the test with MDA-MB-453 cells came to 20500 ± 4480 nM; with MDA-MB-231 cells it was 8720 ± 1080 nM; in the test with M10 cells it was 9570 ± 1620 nM; in the test with SW48 cells, 4330 ± 330 nM; in the test with A549 cells, 4050 ± 460 nM; at TYRO3 (RSE), 9.1 nM. On CSF1R (FMS), the IC50 came out at 11.9 nM. For the same compound, the inhibition at 1 µM stood at 88% on CSF1R (FMS), 95% on MST1R (RON), 90% at FLT3 and 89% on TEK (Tie2).

In the case of `COc1cc2nccc(Oc3ccc(NC(=O)C4(NC(=O)c5ccc(F)cc5)CC4)cc3F)c2cc1OC` [Cbo-02, N-(1-((4-((6,7-diMethoxyquinolin-4-yl)oxy)-3-fluorophenyl)carbamoyl)cyclopropyl)-4-fluorobenzamide], the IC50 in the test with MDA-MB-453 cells stood at 5310 ± 570 nM; with MDA-MB-231 cells, 5640 ± 360 nM; in the test on M10 cells, 3920 ± 250 nM; with SW48 cells, 820 ± 11 nM; with A549 cells, 1510 ± 57 nM. Further, the inhibition at 1 µM on TYRO3 (RSE) (TYRO3 (RSE)) amounted to 58%; on CSF1R (FMS) it was 83%; on MST1R (RON), 96%; on FLT3, 56%; at TEK (Tie2), 77%.

As to `COc1cc2nccc(Oc3ccc(NC(=O)C4(NC(=O)c5ccc(F)cc5)CC4)cc3F)c2cc1Oc1ccc(N)cc1F` [Cbo-10], the IC50 is 4670 ± 280 nM in the test on MDA-MB-453 cells; 2450 ± 140 nM with MDA-MB-231 cells; 911 ± 25 nM with M10 cells; 790 ± 1 nM in the test on SW48 cells; 1180 ± 36 nM in the test with A549 cells. The inhibition at 1 µM at TYRO3 (RSE) (TYRO3 (RSE)) was determined as 87%; on CSF1R (FMS), 96%; at MST1R (RON) it was 100%; on FLT3, 70%; on TEK (Tie2), 85%.

In the case of `COc1cc2nccc(Oc3ccc(NC(=O)C4(NC(=O)c5ccc(F)cc5)CC4)cc3F)c2cc1Oc1c(F)cc(N)cc1F` [Cbo-14], the IC50 came out at 2680 ± 750 nM in the test with MDA-MB-453 cells; 14400 ± 5300 nM in the test with MDA-MB-231 cells; 920 ± 8 nM in the test with M10 cells; 790 ± 1 nM in the test on SW48 cells; 1230 ± 34 nM in the test with A549 cells. Further, the inhibition at 1 µM at TYRO3 (RSE) (TYRO3 (RSE)) is 89%; on CSF1R (FMS), 93%; at MST1R (RON), 100%; at FLT3, 81%; on TEK (Tie2), 90%.

As to `COc1cc2nccc(Oc3ccc(NC(=O)C4(C(=O)Nc5ccc(F)cc5)CC4)cc3F)c2cc1Oc1ccc(N)cc1F` [Cbo-23], the IC50 in the test on MDA-MB-453 cells stood at 1710 ± 140 nM; with MDA-MB-231 cells, 1950 ± 1950 nM; in the test on M10 cells, 1010 ± 20 nM; in the test on SW48 cells, 790 ± 5 nM; with A549 cells, 1690 ± 130 nM; at TYRO3 (RSE) (setting [1]), 12.5 nM. Also, the IC50 at CSF1R (FMS) was determined as 40.2 nM; at MST1R (RON), 51.5 nM; at FLT3, 24.8 nM; on TEK (Tie2), 63.1 nM. In addition, the inhibition at 1 µM at TYRO3 (RSE) (TYRO3 (RSE)) was 100%; at CSF1R (FMS), 99%; at MST1R (RON) it was 101%; at FLT3, 99%; on TEK (Tie2), 95%.

With `CNC(=O)c1cc2c(Oc3ccc(NC(=O)C4(C(=O)Nc5ccc(F)cc5)CC4)cc3)ccnc2cc1OC` [Zanzalintinib, reference compound], the IC50 stood at 22600 ± 1050 nM in the test on MDA-MB-453 cells; 6170 ± 150 nM in the test with MDA-MB-231 cells; 3280 ± 1840 nM with M10 cells; 6860 ± 260 nM in the test with SW48 cells; 7580 ± 180 nM in the test with A549 cells; 9.49 nM on TYRO3 (RSE) (setting [1]). Also, the IC50 turned out to be 16.3 nM on CSF1R (FMS), 135 nM at MST1R (RON), 5.43 nM on FLT3 and 150 nM on TEK (Tie2).
